“Also recorded” adds a separate entry of the source. Like-named read-outs stand apart in the source and are kept apart here.
Key:
[1] = system: dengue virus; set-up: method as in PMID 25823617; details: read-out: IC50, inhibition of viral growth in cell culture; cited from earlier work
[2] = system: DENV2; assay: Antiviral activity in DENV2-infected Huh7 cells, infectious virus in supernatant by plaque assay; format: cell-based, dengue virus; details: Dengue virus
Experimental: FIG 2 Pyrimethamine inhibits dengue virus and NS2B/3 proteinase cleavage like ARDP0006. (A) Chemical structures and (B) ROCS overlay of ARDP0006 and pyrimethamine. […] Infectious virus in cell supernatant was quantified by plaque assay at 24 hpi (left y axis, black or red). Cell viability was measured at the same pyrimethamine doses 24 h posttreatment by WST-1 assay (right y axis, gray). Viral titer and cell viability were normalized to DMSO-treated samples. (D) Splenic titers of DENV2-infected AGB6 mice at 4 days postinfection. Mice were infected with 1 × 10^6 PFU DENV2 and treated twice daily with 20 mg/kg pyrimethamine (n = 9) or a vehicle control (n = 10). Data were analyzed by two-tailed unpaired t test. (E) Cleavage kinetics of NS2B/3/4A in the presence of 100 μM pyrimethamine. NS2B/3/4A protein was expressed in vitro and radiolabeled with [^35S]methionine, followed by treatment with 100 μM pyrimethamine or DMSO. Reaction samples were obtained over a 45-min time course, separated by SDS-PAGE, and the fraction of uncleaved proteinase precursor remaining was determined as described previously ([23]). Data from three replicates were fit using single-phase exponential decay functions, and P value was determined by comparing the rate constant, K, of the models using the extra sum-of-squares F test.
Dengue plaque assays were carried out on BHK-21 cells in 24-well plates. Cells were infected with 10-fold serial dilutions of virus, which were allowed to adsorb for at least 1 h at 37°C, and overlaid with standard cell culture medium plus 0.37% (w/vol) sodium bicarbonate and 0.8% (w/vol) Aquacide II (Millipore Calbiochem). After 7 days of incubation at 37°C, 5% CO2, cells were fixed with 5% (final) formaldehyde and stained with crystal violet for plaque enumeration.
Between 4 × 10^4 and 1 × 10^5 Huh7 cells per well were seeded into 24-well plates 1 day prior to infection. Compounds were diluted to 100× final concentration in DMSO and then further diluted 1:100 into appropriate cell culture. Unless otherwise indicated, tested compounds were present for 1 h pretreatment and readministered for posttreatment following infection. […] Media and drugs were removed from cells for infection at a multiplicity of infection (MOI) of 0.1 or 0.5 in 200 μl cold medium per well. After 1 h at 37°C, virus inoculum was removed by aspiration and replaced with medium plus compound or control. After 24-h total infection, infectious virus was quantified by plaque assay. Antiviral IC50 dose-response curves were fitted in GraphPad Prism 8 using the “[inhibitor] versus response, variable slope” function with a constraint “bottom > 0.” IC90 values are defined as the dose at which “y = (span × 0.1) + bottom.”

[3] = molecular target: NS2B/3 proteinase; set-up: method as in PMID 30228122; details: read-out: IC50, inhibition of NS2B/3 proteinase cleavage activity in solution; cited from earlier work
[4] = ref PubChem database, cited from earlier work; for LD50: single dose
[5] = system: DENV2; assay: DENV2-infected AGB6 mouse model (splenic titer, survival); format: in vivo, AGB6 mice; details: for Splenic titer of dengue virus: AGB6 mice, 20 mg/kg pyrimethamine twice daily, oral gavage, 4 days postinfection, 20 mg/kg
[6] = molecular target: T1, NS2B/3/4A (Dengue virus type 2, UniProt P29990); assay: In vitro translation-based proteinase cleavage assay of NS2B/3/4A precursor; format: biochemical; details: 100 μM pyrimethamine vs DMSO, 45-min time course, translation extracts
T1 construct: NS2B/3/4A protein was expressed in vitro and radiolabeled with [^35S]methionine; made in house; host or cells: rabbit reticulocyte lysate (TNT coupled T7; Promega), cell-free in vitro translation
T1 sequence (P29990 1476-2093): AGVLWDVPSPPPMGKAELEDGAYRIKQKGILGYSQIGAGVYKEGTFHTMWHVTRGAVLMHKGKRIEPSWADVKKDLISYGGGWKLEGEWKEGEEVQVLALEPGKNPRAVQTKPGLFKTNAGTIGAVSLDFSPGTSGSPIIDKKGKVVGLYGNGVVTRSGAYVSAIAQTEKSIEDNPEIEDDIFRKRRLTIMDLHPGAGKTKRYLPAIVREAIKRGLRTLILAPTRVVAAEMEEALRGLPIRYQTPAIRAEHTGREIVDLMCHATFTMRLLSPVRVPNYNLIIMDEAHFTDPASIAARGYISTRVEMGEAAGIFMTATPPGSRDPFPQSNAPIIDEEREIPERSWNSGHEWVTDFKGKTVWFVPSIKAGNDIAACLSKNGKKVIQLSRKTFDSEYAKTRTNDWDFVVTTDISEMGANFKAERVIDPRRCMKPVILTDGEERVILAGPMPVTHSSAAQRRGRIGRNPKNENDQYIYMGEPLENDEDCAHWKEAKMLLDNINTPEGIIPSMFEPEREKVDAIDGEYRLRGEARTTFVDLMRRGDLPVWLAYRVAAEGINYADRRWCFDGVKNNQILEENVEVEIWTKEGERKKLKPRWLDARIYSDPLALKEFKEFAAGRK
T1 sequence (P29990 1346-1475): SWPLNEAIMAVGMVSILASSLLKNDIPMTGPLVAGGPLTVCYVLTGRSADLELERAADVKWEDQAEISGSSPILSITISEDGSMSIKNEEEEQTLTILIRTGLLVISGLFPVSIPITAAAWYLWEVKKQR
Experimental: FIG 2 Pyrimethamine inhibits dengue virus and NS2B/3 proteinase cleavage like ARDP0006. (A) Chemical structures and (B) ROCS overlay of ARDP0006 and pyrimethamine. […] Compounds were added 1 h prior to infection, removed, and then readministered after removal of viral inoculum. Infectious virus in cell supernatant was quantified by plaque assay at 24 hpi (left y axis, black or red). Cell viability was measured at the same pyrimethamine doses 24 h posttreatment by WST-1 assay (right y axis, gray). Viral titer and cell viability were normalized to DMSO-treated samples. (D) Splenic titers of DENV2-infected AGB6 mice at 4 days postinfection. Mice were infected with 1 × 10^6 PFU DENV2 and treated twice daily with 20 mg/kg pyrimethamine (n = 9) or a vehicle control (n = 10). Data were analyzed by two-tailed unpaired t test. […] Reaction samples were obtained over a 45-min time course, separated by SDS-PAGE, and the fraction of uncleaved proteinase precursor remaining was determined as described previously ([23]). Data from three replicates were fit using single-phase exponential decay functions, and P value was determined by comparing the rate constant, K, of the models using the extra sum-of-squares F test. […]
Proteinase cleavage assays were performed as previously described ([23]). […] Protein quantification was performed using ImageQuant TL 8.1 software (GE Healthcare Life Sciences).

[7] = system: dengue virus; assay: Initial screening of hit compounds for anti-dengue activity in tissue culture cells (Table S1); format: cell-based; details: viral titer relative to vehicle, tissue culture cell lines (BHK-21 48 hpi, Fig. S1; Huh7, Fig. 2C, 3C, 4C)
Experimental: For each query molecule, the top 500 compound hits obtained from the ROCS algorithm, as ranked by the Tanimoto combo score (see Data Set S1 in the supplemental material), were manually inspected for similar chemical and structural features. They were further prioritized by factors such as a lack of known side effects, commercial availability, and the intellectual property considerations that would be needed for worldwide, inexpensive use. Fourteen candidates were tested for their effects on dengue virus growth and toxicity in BHK-21 and Huh7 cells (see Table S1 and Fig. S1 in the supplemental material).
Supplementary file : TABLE S1 Summary of hits for lead compounds ARDP0006 and ST-148 screened for anti-dengue activity in tissue culture cells. Hit compounds were tested for anti-dengue activity and cell toxicity in tissue culture cell lines. Antiviral activity is summarized as follows: −, not antiviral, with titer greater than 50% of vehicle; +, weakly antiviral, with titer between 20 and 50% of vehicle; ++, moderately antiviral, with titer between 5 and 20% of vehicle; +++, highly antiviral, with titer less than 5% of vehicle. Toxicity at these doses is represented as follows: −, nontoxic, with cell viability greater than 80% of vehicle; +, mild toxicity, with cell viability between 60 and 80% of vehicle; +++, high toxicity, with cell viability less than 60% of vehicle. Data summarized here are depicted graphically in Fig. S1 and Fig. 2C, 3C, and [4]C. The Tanimoto combo score of each hit during initial ROCS screening is indicated; higher Tanimoto combo scores are indicative of increased chemical similarity. Download Table S1, PDF file, 0.04 MB.
Supplementary file : FIG S1 Initial screening of eliminated hit compounds for anti-dengue activity in tissue culture cells. BHK-21 cells were pretreated with the compounds at the indicated concentrations for 30 min, infected with dengue virus at an MOI of 0.1 PFU/cell for 1 h, and then posttreated with compound. At 48 hpi, cellular supernatant was collected and titered by plaque assay (purple). Cell viability in uninfected cells in the presence of compounds for 48 h was measured by WST assay (gray). Both viral titer and cell viability are normalized to their relative DMSO vehicle control, N = 2. Download FIG S1, PDF file, 0.06 MB.

[8] = system: dengue virus; assay: Extracellular and intracellular virus quantification in Huh7 cells; format: cell-based; details: IC90 dose (spautin-1 2.4 μM, vandetanib 3.6 μM), Huh7, 24 hpi
Experimental: FIG 5 Vandetanib and spautin-1 inhibit dengue maturation and egress in a VPS34-independent manner. […] Cells were pretreated for 1 h, infected for 1 h at an MOI of 0.5 PFU/cell, and posttreated for an additional 23 h. N = 4, one-way ANOVA with Dunnett’s multiple-comparison test. ns, not significant (P > 0.05); **, P < 0.01; ****, P < 0.0001. (C) Huh7 cells transfected with a luciferase-expressing RNA replicon were treated with 3 μM vandetanib (orange) or 1% DMSO vehicle control (black) for 1 h prior to transfection and up to 52 h posttransfection. Luciferase intensity was quantified as a measure of viral protein abundance. Luciferase intensity was shown as relative light units (RLU). The use of an RNA replicon that is directly transfected into cells reflects only translation and RNA replication steps of viral infection, not viral packaging or cell exit. N = 4, two-way ANOVA with Sikak’s multiple-comparison test. […] (D) VPS34 was not required for spautin-1 or vandetanib anti-dengue activity. Wild-type and VPS34 knockout Huh7 cells were treated with 5 μM spautin-1, 5 μM vandetanib, or DMSO. Cells were pretreated, infected at an MOI of 0.5, and posttreated as described above for panels A and B. At 24 hpi, cellular supernatant was collected and titered by plaque assay. N ≥ 3. One-way ANOVA with Dunnett’s multiple-comparison test; *, P < 0.05; **, P < 0.01; ***, P < 0.001; ****, P < 0.0001.
After 1 h, virus inoculum was aspirated and replaced with medium containing compounds or 1% DMSO. After 24-h total infection, extracellular virus was collected in cellular supernatant and quantified by plaque assay. To collect intracellular virus, cells were washed with PBS, incubated for 3 min at 4°C with high-salt buffer (1 M NaCl, 50 mM sodium bicarbonate [pH 9.5]) to detach cell-associated extracellular virus ([63]), washed twice with PBS, detached with 0.25% trypsin-EDTA, and isolated by centrifugation (500 × g, 5 min, 4°C). Infected cell pellets were resuspended in 750 μl cell culture medium, lysed by repeated freeze/thaw in liquid nitrogen followed by 37°C water bath. Debris was removed by centrifugation (3,200 × g, 5 min, 4°C), and infectious intracellular virus was quantified by BHK-21 plaque assay.

[9] = system: dengue virus; assay: Antiviral activity in VPS34 knockout Huh7 cells; format: cell-based; details: 5 μM compound, MOI 0.5, 24 hpi
Experimental: FIG 5 Vandetanib and spautin-1 inhibit dengue maturation and egress in a VPS34-independent manner. […] Cells were pretreated for 1 h, infected for 1 h at an MOI of 0.5 PFU/cell, and posttreated for an additional 23 h. N = 4, one-way ANOVA with Dunnett’s multiple-comparison test. ns, not significant (P > 0.05); **, P < 0.01; ****, P < 0.0001. (C) Huh7 cells transfected with a luciferase-expressing RNA replicon were treated with 3 μM vandetanib (orange) or 1% DMSO vehicle control (black) for 1 h prior to transfection and up to 52 h posttransfection. Luciferase intensity was quantified as a measure of viral protein abundance. Luciferase intensity was shown as relative light units (RLU). The use of an RNA replicon that is directly transfected into cells reflects only translation and RNA replication steps of viral infection, not viral packaging or cell exit. N = 4, two-way ANOVA with Sikak’s multiple-comparison test. […] (D) VPS34 was not required for spautin-1 or vandetanib anti-dengue activity. Wild-type and VPS34 knockout Huh7 cells were treated with 5 μM spautin-1, 5 μM vandetanib, or DMSO. Cells were pretreated, infected at an MOI of 0.5, and posttreated as described above for panels A and B. At 24 hpi, cellular supernatant was collected and titered by plaque assay. N ≥ 3. One-way ANOVA with Dunnett’s multiple-comparison test; *, P < 0.05; **, P < 0.01; ***, P < 0.001; ****, P < 0.0001. […]

[10] = Huh-7, DENV2-infected Huh7 cells, single infectious cycle, plaque assay at 24 hpi, read-out: IC50 of viral inhibition (infectious extracellular virus)

Compound | IC50 [1] | IC50 ([2]; DENV2, Huh-7, read-out: IC50 of viral inhibition (infectious extracellular virus)) | IC50 [3] | IC50 [2, 10] | LD50 ([4]; IP) | LD50 ([4]; Oral) | Acute toxicity in words (Table S2) ([4]; healthy mice) | Splenic titer of dengue virus [5] | Splenic titer of dengue virus ([5]; listed as pyrimethamine) | Mortality on sustained treatment (survival experiments) ([5]; infected AGB6 mice, sustained pyrimethamine treatment) | Cleavage kinetics of NS2B/3/4A precursor [6] | Cleavage kinetics of NS2B/3/4A precursor ([6]; listed as pyrimethamine) | Antiviral [7] | IC90 ([2]; Huh-7, DENV2-infected Huh7 cells, from dose-response curve fit, 24 hpi) | Extracellular viral titer [8] | Infectious intracellular virus [8] | Antiviral activity in VPS34 knockout cells [9]
O=C1c2c(O)ccc([N+](=O)[O-])c2C(=O)c2c([N+](=O)[O-])ccc(O)c21 [ARDP0006] | 2.7 µM | 0.59 µM | 620 µM | – | – | – | – | – | – | – | – | – | – | – | – | – | –
CCc1nc(N)nc(N)c1-c1ccc(Cl)cc1 [Pyrimethamine, pyrimethamine] | – | – | – | 1.2 µM | 74 mg/kg | 92 mg/kg | well tolerated | significantly reduced viral splenic burden | reduced viral loads; also recorded: significant reduction in splenic titer | caused marked mortality | inhibited intramolecular NS2B/3 cleavage | significantly slowed dengue virus NS2B/3 cleavage; also recorded: slowing proteinase cleavage in translation extracts | +++ (highly antiviral, with titer less than 5% of vehicle) | – | – | – | –
Fc1ccc(CNc2ncnc3ccc(F)cc23)cc1 [spautin-1] | – | – | – | 1.1 µM | – | – | – | – | – | – | – | – | – | 2.4 µM | significantly reduced; also recorded: reduced extracellular virus | unchanged; also recorded: abundant intracellular virus | retained significant antiviral activity; also recorded: retained their ability to limit dengue virus egress

Source: PMC7667029, “A Targeted Computational Screen of the SWEETLEAD Database Reveals FDA-Approved Compounds with Anti-Dengue Viral Activity” (mBio, 2020)
